Source: ChEMBL document CHEMBL3272004, “Dibenz[b,e]oxepinalkanoic acids as nonsteroidal antiinflammatory agents. 3. omega-(6,11-Dihydro-11-oxodibenz[b,e]oxepin-2-yl)alkanoic acids” (J Med Chem, 1977)
Calls of active or inactive are those of the source. No cut-off for these calls is given here.

Tests used:
Rattus norvegicus [1] = assay: Antiinflammatory activity in Wistar rat assessed as inhibition of carrageenan-induced paw edema administered 1 hr prior to carrageenan challenge measured at 25 mg/kg, po after 3 hrs of carrageenan challenge relative to vehicle-treated control; assay type: functional
Rattus norvegicus [2] = assay: Antiinflammatory activity in po dosed Wistar rat assessed as inhibition of carrageenan-induced paw edema administered 1 hr prior to carrageenan challenge measured after 3 hrs of carrageenan challenge; assay type: functional
Rattus norvegicus [3] = assay: Induction of carrageenan-induced paw edema in Wistar rat administered 1 hr prior to carrageenan challenge measured at 50 mg/kg, po after 3 hrs of carrageenan challenge relative to vehicle-treated control; assay type: organism-based; parameters: dose 50 mg/kg, route oral; conditions: in vivo

Compound	ED50 (Rattus norvegicus [2]) [mg/kg]	inhibition (Rattus norvegicus [2])	also measured
CC(C)OC(=O)CCCc1ccc2c(c1)C(=O)c1ccccc1CO2			inhibition in vivo at 25 mg/kg (Rattus norvegicus [1]): 43.7%
COc1ccc2c(c1)c(CC(=O)O)c(C)n2C(=O)c1ccc(Cl)cc1 [INDOMETHACIN]	4.4		
O=C(O)Cc1ccc2c(c1)C(=O)c1ccccc1CO2 [ISOXEPAC]	6.4		
O=C(O)CCCCCCCc1ccc2c(c1)C(=O)c1ccccc1CO2	11.7		
O=C(O)CCc1ccc(OCc2ccccc2C(=O)O)cc1		inactive	
COC(=O)CCCc1ccc2c(c1)C(=O)c1ccccc1CO2			inhibition in vivo at 25 mg/kg (Rattus norvegicus [1]): 31.7%
O=C(O)CCc1ccc2c(c1)C(=O)c1ccccc1CO2			Activity (Rattus norvegicus [3]): 11%
O=C(O)CCCCCc1ccc(OCc2ccccc2C(=O)O)cc1		inactive	
O=C(O)CCCCCCCc1ccc(OCc2ccccc2C(=O)O)cc1		inactive	
O=C(O)CCCc1ccc2c(c1)C(=O)c1ccccc1CO2	10.1		
O=C(O)CCCCCc1ccc2c(c1)C(=O)c1ccccc1CO2	18.2		
O=C(O)CCCc1ccc(OCc2ccccc2C(=O)O)cc1		inactive	
